Data taken from ChEMBL document CHEMBL1201862, “PubChem BioAssay data set” (2004).
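Values below derive from 48-hour exposures of cells grown in 96-well plates, with endpoints linearly interpolated between the two concentrations bracketing the appropriate inhibition level. At the GI50, growth is halved.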 Calls of active or inactive are those of the source. No stated cut-off is given here; in the data, active = GI50 up to about 1.1 µM and inactive = higher.

Key:
Assay in all cases: NCI tumour cell line growth inhibition, 48 h
SK-MEL-2 = test system: SK-MEL-2
OVCAR-5 = test system: OVCAR-5
A498 = test system: A498
NCI-H460 = test system: NCI-H460
SW-620 = test system: SW-620
IGROV-1 = test system: IGROV-1
NCI/ADR-RES = test system: NCI/ADR-RES
HCC 2998 = test system: HCC 2998
MDA-MB-231 = test system: MDA-MB-231
SF-539 = test system: SF-539
A549 = test system: A549
UACC-62 = test system: UACC-62
OVCAR-3 = test system: OVCAR-3
NCI-H23 = test system: NCI-H23
SK-MEL-28 = test system: SK-MEL-28
UACC-257 = test system: UACC-257
HCT-116 = test system: HCT-116
LOX IMVI = test system: LOX IMVI
M14 = test system: M14
TK-10 = test system: TK-10

SMILES | GI50 (SK-MEL-2) | GI50 (OVCAR-5) | GI50 (A498) | GI50 (NCI-H460) | GI50 (SW-620) | GI50 (IGROV-1) | GI50 (NCI/ADR-RES) | GI50 (HCC 2998) | GI50 (MDA-MB-231) | GI50 (SF-539) | GI50 (A549) | GI50 (UACC-62) | GI50 (OVCAR-3) | GI50 (NCI-H23) | GI50 (SK-MEL-28) | GI50 (UACC-257) | GI50 (HCT-116) | GI50 (LOX IMVI) | GI50 (M14) | GI50 (TK-10)
Nc1ccc2c(c1)NC(=O)[C@@H]1CCCN1C2=O | > 100 µM (inactive) | > 100 µM (inactive) | > 100 µM (inactive) | > 100 µM (inactive) | > 100 µM (inactive) | > 100 µM (inactive) | > 100 µM (inactive) | > 100 µM (inactive) | > 100 µM (inactive) | > 100 µM (inactive) | > 100 µM (inactive) | > 100 µM (inactive) | > 100 µM (inactive) | > 100 µM (inactive) | > 100 µM (inactive) | > 100 µM (inactive) | > 100 µM (inactive) | > 100 µM (inactive) | > 100 µM (inactive) | > 100 µM (inactive)
CCOC1OCCCC1Br (stereo unspecified) | > 100 µM (inactive) | > 100 µM (inactive) | > 100 µM (inactive) | > 100 µM (inactive) | > 100 µM (inactive) | > 100 µM (inactive) | > 100 µM (inactive) | > 100 µM (inactive) | > 100 µM (inactive) | > 100 µM (inactive) | > 100 µM (inactive) | 72.1 µM (inactive) | > 100 µM (inactive) | > 100 µM (inactive) | > 100 µM (inactive) | > 100 µM (inactive) | > 100 µM (inactive) | > 100 µM (inactive) | > 100 µM (inactive) | > 100 µM (inactive)
COc1cc(OC)c2nc(C)c3c(c2c1)SCC3 | 27.7 µM (inactive) | 29.6 µM (inactive) | 18.6 µM (inactive) | 23.7 µM (inactive) | 27 µM (inactive) | 17.2 µM (inactive) | 27.4 µM (inactive) | 46.9 µM (inactive) | 21.1 µM (inactive) | 18.5 µM (inactive) | 21.1 µM (inactive) | 22.9 µM (inactive) | 19.2 µM (inactive) | 31.9 µM (inactive) | 31 µM (inactive) | 31.7 µM (inactive) | 22.2 µM (inactive) | 32.7 µM (inactive) | 41.4 µM (inactive) | 19.5 µM (inactive)
CO/[N+]([O-])=C\C(=O)N/C=C/C(=O)O | – | > 100 µM (inactive) | > 100 µM (inactive) | > 100 µM (inactive) | > 100 µM (inactive) | > 100 µM (inactive) | > 100 µM (inactive) | > 100 µM (inactive) | > 100 µM (inactive) | > 100 µM (inactive) | – | > 100 µM (inactive) | > 100 µM (inactive) | > 100 µM (inactive) | > 100 µM (inactive) | > 100 µM (inactive) | > 100 µM (inactive) | > 100 µM (inactive) | > 100 µM (inactive) | –
CCOC(=O)NC(OC)(C(F)(F)F)C(F)(F)F | – | – | > 100 µM (inactive) | > 100 µM (inactive) | > 100 µM (inactive) | > 100 µM (inactive) | > 100 µM (inactive) | > 100 µM (inactive) | > 100 µM (inactive) | > 100 µM (inactive) | > 100 µM (inactive) | > 100 µM (inactive) | > 100 µM (inactive) | > 100 µM (inactive) | > 100 µM (inactive) | > 100 µM (inactive) | > 100 µM (inactive) | > 100 µM (inactive) | > 100 µM (inactive) | > 100 µM (inactive)
COC(=O)NC1(NC(=O)OC)NC(=O)c2ccccc2N1 | 0.0145 µM (active) | > 100 µM (inactive) | > 100 µM (inactive) | > 100 µM (inactive) | > 100 µM (inactive) | > 100 µM (inactive) | > 100 µM (inactive) | > 100 µM (inactive) | > 100 µM (inactive) | > 100 µM (inactive) | < 0.01 µM (active) | > 100 µM (inactive) | > 100 µM (inactive) | > 100 µM (inactive) | > 100 µM (inactive) | > 100 µM (inactive) | > 100 µM (inactive) | – | > 100 µM (inactive) | 96.2 µM (inactive)
CC1=NN(c2cccc(Cl)c2)C2(SCC(=O)N2c2nc3ccccc3s2)/C1=C\c1ccccc1O (stereo unspecified) | 17.6 µM (inactive) | 25.4 µM (inactive) | 11 µM (inactive) | 31.8 µM (inactive) | 16.7 µM (inactive) | 17.4 µM (inactive) | 19.7 µM (inactive) | 21.6 µM (inactive) | 20.2 µM (inactive) | 33.5 µM (inactive) | – | – | 15.8 µM (inactive) | 16 µM (inactive) | 24.8 µM (inactive) | 31.4 µM (inactive) | 14.9 µM (inactive) | 30.5 µM (inactive) | 21.7 µM (inactive) | 42.4 µM (inactive)
Nc1c(C(=O)O)nnc2ccc(Cl)cc12 | > 100 µM (inactive) | > 100 µM (inactive) | 58.6 µM (inactive) | > 100 µM (inactive) | > 100 µM (inactive) | > 100 µM (inactive) | > 100 µM (inactive) | > 100 µM (inactive) | > 100 µM (inactive) | > 100 µM (inactive) | > 100 µM (inactive) | > 100 µM (inactive) | > 100 µM (inactive) | > 100 µM (inactive) | – | > 100 µM (inactive) | > 100 µM (inactive) | > 100 µM (inactive) | > 100 µM (inactive) | > 100 µM (inactive)
COc1ccc(-n2cnc3c2=NC(C)(C)NC=3C(N)=O)c(OC)c1 | – | > 100 µM (inactive) | > 100 µM (inactive) | > 100 µM (inactive) | > 100 µM (inactive) | > 100 µM (inactive) | > 100 µM (inactive) | > 100 µM (inactive) | > 100 µM (inactive) | > 100 µM (inactive) | > 100 µM (inactive) | > 100 µM (inactive) | > 100 µM (inactive) | > 100 µM (inactive) | > 100 µM (inactive) | > 100 µM (inactive) | > 100 µM (inactive) | > 100 µM (inactive) | > 100 µM (inactive) | > 100 µM (inactive)
CC(C)c1cc(=O)[nH]c2cc(N)ccc12 | > 100 µM (inactive) | > 100 µM (inactive) | > 100 µM (inactive) | > 100 µM (inactive) | > 100 µM (inactive) | > 100 µM (inactive) | > 100 µM (inactive) | > 100 µM (inactive) | > 100 µM (inactive) | > 100 µM (inactive) | > 100 µM (inactive) | 93.8 µM (inactive) | > 100 µM (inactive) | > 100 µM (inactive) | > 100 µM (inactive) | > 100 µM (inactive) | > 100 µM (inactive) | > 100 µM (inactive) | > 100 µM (inactive) | –
COC1(CC[C@H](C)COC2OC(CO)C(O)C(O)C2O)O[C@H]2C[C@H]3[C@@H]4CC=C5C[C@@H](OC6OC(CO)C(OC7OC(C)C(O)C(O)C7O)C(O)C6OC6OC(C)C(O)C(O)C6O)CC[C@]5(C)[C@H]4CC[C@]3(C)[C@H]2[C@@H]1C (stereo partly specified) | 3.78 µM (inactive) | 4.2 µM (inactive) | 23.5 µM (inactive) | – | 2.67 µM (inactive) | 6.73 µM (inactive) | 3.67 µM (inactive) | 6.32 µM (inactive) | 5.05 µM (inactive) | 1.96 µM (inactive) | 1.99 µM (inactive) | – | 6.1 µM (inactive) | 5.53 µM (inactive) | 3.77 µM (inactive) | 5.51 µM (inactive) | – | 1.9 µM (inactive) | 3.12 µM (inactive) | 35.6 µM (inactive)
